In US20260083686A1, “METHODS FOR SUPPRESSING ACCUMULATION OF REFLUX-INDUCED PROTEIN ADDUCTS” (Vanderbilt University, priority 2018, published 2026):
Entries after “also recorded” stand apart in the source; their conditions may differ.

Assays:
[1] = test system: isoLG protein adducts (LG-lysine lactam) in TE-7 cells; test: LG-lysine lactam adducts by LC/ESI/MS/MS in TE-7 cells treated with acidic bile salts (BA/A); format: cell-based, human; conditions: BA/A 100 μM pH 4.0 for 30 min, 2-HOBA 50 μM
From the text: Formation of LG-lysine adducts was further verified by quantification of the LG-lysyl lactam adducts using liquid chromatography-electrospray ionization-tandem mass spectrometry (LC/ESI/MS/MS) in TE-7 cells treated with BA/A. Our studies confirmed that levels of LG-lysine lactam adduct are higher in BA/A treated than control samples. Our quantification analyses were based on specific transitions from the molecular ion at m/z=479.2 to the specific fragment at m/z=332.1. The elution of the two fragment ions found in BA/A treated samples was similar to the [13C6]lysine-lactam internal standard (FIG. 2A). As an additional control, TE-7 cells were treated with BA/A as above but in the presence of known isoLG scavenger 2-hydroxybenzylamine (2HOBA) and analyzed by mass spectrometry.
Cell Lines: Human non-tumorous esophageal cell line (HET-1A) and human esophageal carcinoma cell line (TE-7) were purchased from ATCC. The morphology, karyotyping and PCR based techniques were used by ATCC to confirm the cell line identity. […]
Detection of Levuglandinyl-Lysine Lactam Using Liquid Chromatography/Electrospray Ionization/Tandem Mass Spectrometry (LC/ESI/MS/MS): Levuglandinyl-lysine lactam was analyzed in TE-7 cells treated with acidic bile salts and control untreated cells using LC/ESI/MS/MS. […]

[2] = test system: isoLG protein adducts in esophageal tissues; test: Surgical (esophagojejunostomy) reflux model in mice, isoLG adducts by immunohistochemistry with D11 antibody; format: in vivo; conditions: 2-HOBA 1 mg/ml in drinking water for 10 days; for accumulation of isoLG adducts in esophageal tissues in vivo: mice with surgically induced reflux
From the text: To investigate the formation of isoLG protein adducts in the esophagus, The present inventors used a surgical model of esophageal reflux injury. To generate animals with reflux, a section of the mouse jejunum was transected and then anastomosed to the esophagus resulting in an increased reflux. […] Using immunohistochemistry with D11 antibody, the present inventors compared levels of isoLG protein adducts in esophageal epithelia of animals with reflux induced by surgery and control animals with sham surgery. Levels of isoLG adducts were also analyzed in surgical animals treated with isoLG scavenger 2-HOBA for 10 days. The present inventors found significant accumulation of isoLG protein adducts in esophageal animal tissues affected by reflux.
Induction of Reflux in Mice: Reflux was induced by surgical procedure, esophagojejunal anastomosis, as previously described. Esophagojejunostomy was performed on fourteen 8-week-old 129SV mice according to the protocol approved by the Vanderbilt University Animal Care and Use Committee. Animals were then be allowed a 2-weeks recovery period on regular rodent chow ad libitum prior to were randomly assigned into two groups. First group of 7 mice with surgery was treated with 2-HOBA (1 mg/ml) delivered in drinking water for 10 days, while a control group (7 surgical animals) only received water. Additional control group of 5 animals with sham surgery received water. The esophagus and gastroesophageal junction areas from the test and control groups of animals were harvested, paraffin-embedded and analyzed by immunohistochemistry with D11 antibody. Indices of D11 positivity were scored and compared in test and control groups of animals.

[3] = test system: p53 isoLG protein adducts in EPC-2 cells; test: p53 immunoprecipitation and Western blot with D11 antibody for p53 isoLG adducts in BA/A-treated EPC-2 cells; format: cell-based, human; conditions: 2-HOBA 50 μM, p53 (DO-1) immunoprecipitation, D11 Western blot
Procedure: To directly analyze p53 protein adducts, cellular lysates of EPC-2 cells, which were treated with BA/A in the presence or absence of 2-HOBA, were immunoprecipitated with p53 antibody. The immunoprecipitated p53 protein was then analyzed for the isoLG adducts by Western blotting with isoLG-specific D11 antibody.
Treatment With Acidic Bile Salts (BA/A) and 2-HOBA: Cells were treated in acidic DMEM media (pH 4.0), containing bile salts cocktail at final concentration of 100 μM. The bile salt cocktail was prepared with a combination of glycocholic, taurocholic, glycodeoxycholic, glycochenodeoxycholic and deoxycholic sodium salts (all reagents were from Sigma-Aldrich, St. Louis, MO) at a concentration of 20 μM each. TE-7 and HET-1A cells were treated for 30 minutes, whereas, EPC-2 cells were treated for 15 minutes and then the media was replaced. […]
For immunoprecipitation, cells were harvested by centrifugation at 200 g for 5 minutes and resuspended in PBS with protease inhibitor cocktail. […] The immunoprecipitated samples were analyzed by Western blotting with D11 antibody and anti-E tag HRP-conjugated antibodies from Abcam. The analyzed membranes were stripped in Restore™ Western Blot Stripping Buffer (ThermoFisher Scientific, Waltham, MA) at +50° C. for 1 hour, washed, and blocked with 5% milk and analyzed by Western blotting with p53 (DO1) antibody.

NCc1ccccc1O [2-HOBA, 2-hydroxybenzylamine]
formation of isoLG protein adducts (LG-lysine lactam adduct levels) [1]: higher in BA/A-treated samples compared to control and treated with isoLG scavenger 2-HOBA
formation of isoLG protein adducts (LG-lysine lactam adduct levels) ([1]; listed as 2HOBA): inhibited formation of isoLG protein adducts
accumulation of isoLG adducts in esophageal tissues in vivo [2]: efficiently decreased isoLG protein adducts in mice in vivo; also recorded: prevents accumulation of isoLG adducts in vivo; also recorded: inhibited accumulation of isoLG adducts in vivo
accumulation of isoLG adducts in esophageal tissues in vivo ([2]; listed as 2HOBA): efficiently suppresses accumulation of reflux-induced protein adducts in vitro and in vivo
isoLG adducts: surgical animals treated with 2-HOBA versus sham control animals ([2]; mice): did not find significant difference
formation of p53 isoLG protein adducts [3]: significantly inhibited formation of p53 protein adducts; also recorded: inhibited the formation of p53 protein adducts
